Measurements: PMC8343220, “The selectivity of α‐adrenoceptor agonists for the human α1A, α1B, and α1D‐adrenoceptors” (Pharmacology Research & Perspectives, 2021)

What was measured:
human α1B‐adrenoceptor [1] = biological target: T1, human α1B‐adrenoceptor (Homo sapiens, UniProt P35368); assay: ERK1/2‐phosphorylation (Surefire Alphascreen), CHO‐α1B cells; assay type: cell-based; details: for EC50 / ERK1/2‐phosphorylation % PDBu: for bi‐phasic responses the initial stimulatory part; for EC50: read-out: ERK1/2‐phosphorylation Log EC50 (converted); for ERK1/2‐phosphorylation % PDBu: maximal response as % PDBu response
T1 construct: expressed in transfected cells; host or cells: CHO-K1
T1 sequence (P35368 1-520): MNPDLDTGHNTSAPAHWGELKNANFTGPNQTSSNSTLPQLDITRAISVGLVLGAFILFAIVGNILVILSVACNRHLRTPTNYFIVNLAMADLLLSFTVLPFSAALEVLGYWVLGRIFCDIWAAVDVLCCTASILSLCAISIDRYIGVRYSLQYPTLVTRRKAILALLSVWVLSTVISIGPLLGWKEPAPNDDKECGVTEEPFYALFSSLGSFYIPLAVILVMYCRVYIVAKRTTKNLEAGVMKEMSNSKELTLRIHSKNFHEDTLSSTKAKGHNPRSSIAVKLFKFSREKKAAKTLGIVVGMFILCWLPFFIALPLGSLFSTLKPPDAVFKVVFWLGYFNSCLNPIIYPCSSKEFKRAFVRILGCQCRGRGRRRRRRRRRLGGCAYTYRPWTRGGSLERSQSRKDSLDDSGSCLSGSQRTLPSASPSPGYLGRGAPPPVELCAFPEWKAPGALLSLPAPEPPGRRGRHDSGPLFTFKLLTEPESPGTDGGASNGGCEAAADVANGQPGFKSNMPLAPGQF

human α1B‐adrenoceptor [2] = biological target: T1, human α1B‐adrenoceptor; assay: ^3H‐cAMP accumulation, CHO‐α1B cells; assay type: cell-based; details: CHO‐α1B cells; for cAMP accumulation % forskolin: % forskolin maximum response; for EC50: read-out: cAMP accumulation Log EC50 (converted); for cAMP accumulation % forskolin at 100 µM: response at 100 µM ligand (no EC50 given)
human α1A‐adrenoceptor [3] = biological target: T2, human α1A‐adrenoceptor (Homo sapiens, UniProt P35348); assay: Intracellular free calcium mobilization, CHO‐α1A cells; assay type: cell-based; details: CHO‐α1A cells; for Log efficacy ratio KD /EC50: binding KD and calcium EC50; for EC50: given as log EC50 (negative), read-out: Intracellular calcium release Log EC50 (converted); for Intracellular calcium release % ionomycin: maximal response as % of 10 µM ionomycin
T2 construct: expressed in transfected cells; host or cells: CHO-K1
T2 sequence (P35348 1-466): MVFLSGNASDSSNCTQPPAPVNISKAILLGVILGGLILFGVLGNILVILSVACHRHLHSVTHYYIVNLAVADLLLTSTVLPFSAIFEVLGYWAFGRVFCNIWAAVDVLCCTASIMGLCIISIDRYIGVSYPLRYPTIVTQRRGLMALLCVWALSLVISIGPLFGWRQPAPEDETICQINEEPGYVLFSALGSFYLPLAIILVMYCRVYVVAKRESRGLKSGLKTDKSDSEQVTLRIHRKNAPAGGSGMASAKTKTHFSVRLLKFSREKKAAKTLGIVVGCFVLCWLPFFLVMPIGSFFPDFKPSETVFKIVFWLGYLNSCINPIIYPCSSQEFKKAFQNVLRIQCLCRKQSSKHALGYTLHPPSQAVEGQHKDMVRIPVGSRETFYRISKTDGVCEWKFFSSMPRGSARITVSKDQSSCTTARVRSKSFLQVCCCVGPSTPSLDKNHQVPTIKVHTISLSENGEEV

human α1A‐adrenoceptor [4] = biological target: T2, human α1A‐adrenoceptor; assay: ^3H‐prazosin whole‐cell radioligand binding, CHO‐α1A cells; details: for Kd: CHO‐α1A cells, given as log KD (negative), mean ± SEM; for Affinity selectivity ratio α1A vs α1B: higher affinity for α1A than α1B; for Affinity selectivity ratio α1A vs α1D: higher affinity for α1A than α1D
[5] = tested on: parental CHO cell line without any transfected receptors; assay: Intracellular calcium mobilization, parent CHO cells without transfected receptors; assay type: cell-based, Chinese hamster; details: Cricetulus griseus; CHO cells without transfected receptors; response at maximum concentration used (c2), as % of ionomycin (10μM) response; mean ± s.e.m.; read-out: Intracellular calcium release % ionomycin
[6] = Log KD α1A, ^3H‐prazosin whole cell binding

Row | Compound | ERK1/2‐phosphorylation response in CHO‐α1B cells (human α1B‐adrenoceptor [1]) | ERK1/2‐phosphorylation % PDBu at 100 µM (human α1B‐adrenoceptor [1]; CHO‐α1B cells, response at 100 µM ligand (no EC50 given)) | cAMP accumulation Log EC50 (human α1B‐adrenoceptor [2]) | cAMP accumulation % forskolin (human α1B‐adrenoceptor [2]) | Log efficacy ratio KD /EC50 (human α1A‐adrenoceptor [3]) | EC50 (human α1A‐adrenoceptor [3]) | Intracellular calcium release % ionomycin (human α1A‐adrenoceptor [3]) | Kd (human α1A‐adrenoceptor [4]) | Affinity selectivity ratio α1A vs α1B (human α1A‐adrenoceptor [4]) | Affinity selectivity ratio α1A vs α1D (human α1A‐adrenoceptor [4]) | EC50 (human α1B‐adrenoceptor [1]; CHO‐α1B cells) | ERK1/2‐phosphorylation % PDBu (human α1B‐adrenoceptor [1]; CHO‐α1B cells) | EC50 (human α1B‐adrenoceptor [2]) | Kd (human α1A‐adrenoceptor [4]; [6]) | cAMP accumulation % forskolin at 100 µM (human α1B‐adrenoceptor [2]) | Emax [5]
1 | CC(CCc1ccc(O)cc1)NCCc1ccc(O)c(O)c1 (centres unmarked) [Dobutamine] | did not stimulate any measurable | 56.3 ± 11.3% | No response | No response | 2.04 | 4.17 nM | 31.3 ± 3.6% | 457 nM | 7.9 fold | 9.5 fold | – | – | – | – | – | –
2 | Clc1ccc2nsnc2c1NC1=NCCN1 [Tizanidine] | – | – | – | 10.7 ± 1.5% | 1.98 | 36.3 nM | 53.5 ± 1.6% | – | 12.9 fold | 1.1 fold | 288 nM | 57.7 ± 5.3% | 708 nM | 3470 nM | – | –
3 | C[C@H](N)[C@H](O)c1cccc(O)c1 [Metaraminol] | – | – | – | – | 3.14 | 61.7 nM | 66.9 ± 3.2% | 85100 nM | >11.7 fold | – | 1450 nM | 92.2 ± 3.9% | – | – | 42.0 ± 5.1% | –
4 | N=C(N)NC(=O)Cc1c(Cl)cccc1Cl [Guanfacine] | – | – | – | 39.0 ± 5.8% | 1.95 | 52.5 nM | 56.8 ± 2.2% | 4680 nM | 28.8 fold | 2.5 fold | 195 nM | 97.4 ± 2.7% | 1620 nM | – | – | 11.5 ± 2.9%
5 | c1ccc(C2CC2)c(OCC2=NCCN2)c1 [Cirazoline] | – | – | – | 11.4 ± 2.4% | 3.01 | 0.661 nM | 58.2 ± 2.0% | 676 nM | 11.7 fold | 4.4 fold | 120 nM | 82.5 ± 8.6% | 120 nM | – | – | 4.5 ± 0.8%
6 | COc1ccc(OC)c(C(O)C(C)N)c1 (centres unmarked) [Methoxamine] | – | – | – | – | 3.43 | 8.71 nM | 55.9 ± 2.3% | – | >42.7 fold | 6.5 fold | 2820 nM | 83.8 ± 5.7% | – | 23400 nM | 24.2 ± 4.6% | –
7 | c1ccc2c(CC3=NCCN3)cccc2c1 [Naphazoline] | – | – | – | 3.9 ± 0.7% | 2.39 | 1.17 nM | 50.9 ± 2.6% | – | 6.3 fold | 7.1 fold | 151 nM | 71.1 ± 7.2% | 12.9 nM | 288 nM | – | –
8 | CCNCC(O)c1cccc(O)c1 (centres unmarked) [Etilefrine] | – | – | – | – | 3.12 | 77.6 nM | 58.1 ± 2.1% | – | >9.8 fold | – | 302 nM | 78.8 ± 6.1% | – | 102000 nM | 73.4 ± 7.1% | –
